Patent publication US20250236616A1, “IMMUNOMODULATING AZALIDES” (Zoetis Services LLC, priority 2021, published 2025)

What was measured:
TNF-α = assay: Whole bovine blood assay, LPS-induced TNF-α; format: cell-based; conditions: fresh whole bovine blood, LPS stimulant, top drug concentration 250 μM
Description: Whole Blood Assay-Fresh whole bovine blood samples were collected into heparinized vacutainer tubes. Assay plates were prepared with 25 μL of drug diluted in PBS at varying concentration in 96 round bottom wells, then 225 μL of blood was added and plates incubated at 37° C. for 4 hours. Cells were stimulated with LPS (or PBS for controls) by adding 25 μL to the plates at a final concentration of 1 μg/mL and incubated at 37° C. for 18 hours. To collect plasma, plates were centrifuged at 2,000×g for 10 minutes and 100 μL of supernatant was transferred to a 96 well polypropylene plate that was sealed and stored at −80° C. Samples were assayed for cytokines using the Meso Scale Discovery (MSD) platform (described below). This same MSD platform was used to assess cytokines in the plasma collected directly from drug treated animals.
Cytokine Detection—An MSD U-Plex cytokine assay was developed following the MSD U-Plex protocol guide and included biotinylated capture antibodies against: bovine Interleukin (IL)-1β (Biorad), bovine IL-6 (R&D Systems) and bovine tumor necrosis factor (TNF)-α (R&D Systems). […] Assay calibrators (Kingfisher) were diluted to a concentration of […] in control lithium heparin plasma, followed by 4-fold serial dilutions into plasma. […] Antibodies were used at the following concentrations: anti-IL-1β at 1 μg/mL, anti-IL-6 at 1 μg/mL and anti-TNF-α at 0.5 μg/mL. Cytokines were quantified according to manufacturer's instructions using a chemiluminescent readout. In brief, 0.5 mL of all biotinylated antibodies were diluted to 10 μg/mL with Diluent 100 and paired to their respective linkers by adding 750 μL of supplied Linker solution and incubated for 30 minutes followed by addition of Stop solution for another 30 minutes. The linked antibodies were then diluted 10-fold into Stop solution. Plates were coated by adding 50 μL of antibody solutions per well and incubated covered and shaking for 1 hour at room temperature. Plates were washed three times with PBS/Tween20 prior to samples or standards being added at 30 μL per well and incubated as above. Plates were washed three times before detection antibodies were added along with 2% goat and rabbit serum to block and incubated same as above. Plates were washed a further three times before addition of 150 μL 2X Read buffer and read immediately on the SI6000 instrument (MSD). For soluble protein levels, a BCA protein kit (Thermofisher) was used. The cytokine concentrations (pg/mL) were normalized to the total protein levels for each sample. [Bassel et. al., BMC Veterinary Research (2020) 16:168]
Therefore, a fresh whole bovine blood assay was developed with LPS as a stimulant (TLR-4 agonist) and with IL-1β and TNF-α as the read-out. Compounds of the invention were evaluated against a positive control for their ability to inhibit LPS-induced IL-1β and TNF-α as an overall evaluation of relative potency and modulation of target pathways.
TNFα is a cell signaling protein, cytokine, that plays a key role in both acute and chronic inflammation. In the bovine whole blood in vitro screening assay the inhibition of TNFα as induced by stimulation by lipopolysaccharide (LPS) and as measured by half the maximal inhibitory concentration (IC50) is recognized as the primary biomarker of immunomodulation potency upon pretreatment with the compounds of the invention. IL-1 B is a mediator of the inflammation response and is involved in a number of cellular activities including proliferation, differentiation and apoptosis. IL-1ß is also released upon cellular stress or cytotoxicity or upon TLR stimulation. […] In order to estimate a therapeutic index from the in vitro assay a differential between the TNFα IC50 (immunomodulation potency) versus the perceived cellular toxicity concentration (IL-1β release or overstimulation) was utilized.

IL-6 = assay: Whole bovine blood assay, LPS-induced IL-6; format: cell-based; conditions: fresh whole bovine blood, LPS stimulant, top drug concentration 250 μM

SMILES | IC50 (TNF-α) | IC50 (IL-6) | IC50 (TNF-α; Bos taurus) | IC50 (IL-6; Bos taurus)
CC[C@H]1OC(=O)[C@H](C)[C@@H](O[C@H]2C[C@@](C)(OC)[C@](O)(CNc3ccc(OC)cc3)[C@H](C)O2)[C@H](C)[C@@H](O[C@@H]2O[C@H](C)C[C@H](N(C)S(=O)(=O)c3ccc(Cl)cc3)[C@H]2O)[C@](C)(O)C[C@@H](C)CN[C@H](C)[C@@H](O)[C@]1(C)O [Example B-27] | 17 µM | 33 µM | – | –
CC[C@H]1OC(=O)[C@H](C)[C@@H](O[C@H]2C[C@@](C)(OC)[C@](O)(CNCc3cscn3)[C@H](C)O2)[C@H](C)[C@@H](O[C@@H]2O[C@H](C)C[C@H](N(C)S(=O)(=O)c3ccc(Cl)cc3)[C@H]2O)[C@](C)(O)C[C@@H](C)CN[C@H](C)[C@@H](O)[C@]1(C)O [Example B-37] | 8 µM | 13 µM | – | –
CCCNC[C@]1(O)[C@H](C)O[C@@H](O[C@H]2[C@H](C)[C@@H](O[C@@H]3O[C@H](C)C[C@H](N(C)S(=O)(=O)N(C)c4ccc(F)cc4)[C@H]3O)[C@](C)(O)C[C@@H](C)CN[C@H](C)[C@@H](O)[C@](C)(O)[C@@H](CC)OC(=O)[C@@H]2C)C[C@@]1(C)OC [Example B-61] | 37 µM | 71 µM | – | –
CCCNC[C@]1(O)[C@H](C)O[C@@H](O[C@H]2[C@H](C)[C@@H](O[C@@H]3O[C@H](C)C[C@H](N(C)S(=O)(=O)c4ccccc4NC4CC4)[C@H]3O)[C@](C)(O)C[C@@H](C)CN[C@H](C)[C@@H](O)[C@](C)(O)[C@@H](CC)OC(=O)[C@@H]2C)C[C@@]1(C)OC [Example B-63] | 9 µM | 10 µM | – | –
CC[C@H]1OC(=O)[C@H](C)[C@@H](O[C@H]2C[C@@](C)(OC)[C@](O)(CNC3CC3)[C@H](C)O2)[C@H](C)[C@@H](O[C@@H]2O[C@H](C)C[C@H](N(C)S(=O)(=O)Nc3ccc(C(F)(F)F)cc3)[C@H]2O)[C@](C)(O)C[C@@H](C)CN[C@H](C)[C@@H](O)[C@]1(C)O [Example B-70] | 4 µM | 13 µM | – | –
CC[C@H]1OC(=O)[C@H](C)[C@@H](O[C@H]2C[C@@](C)(OC)[C@](O)(CNCC(C)C)[C@H](C)O2)[C@H](C)[C@@H](O[C@@H]2O[C@H](C)C[C@H](N(C)S(=O)(=O)Nc3ccc(C(F)(F)F)cc3)[C@H]2O)[C@](C)(O)C[C@@H](C)CN[C@H](C)[C@@H](O)[C@]1(C)O [Example B-85] | 9 µM | 26 µM | – | –
CC[C@H]1OC(=O)[C@H](C)[C@@H](O[C@H]2C[C@@](C)(OC)[C@](O)(CNCc3ccncc3)[C@H](C)O2)[C@H](C)[C@@H](O[C@@H]2O[C@H](C)C[C@H](N(C)S(=O)(=O)Nc3ccc(C(F)(F)F)cc3)[C@H]2O)[C@](C)(O)C[C@@H](C)CN[C@H](C)[C@@H](O)[C@]1(C)O [Example B-89] | 9 µM | 23 µM | – | –
CC[C@H]1OC(=O)[C@H](C)[C@@H](O[C@H]2C[C@@](C)(OC)[C@](O)(CNCc3ccccc3)[C@H](C)O2)[C@H](C)[C@@H](O[C@@H]2O[C@H](C)C[C@H](N(C)S(=O)(=O)Nc3ccc(C(F)(F)F)cc3)[C@H]2O)[C@](C)(O)C[C@@H](C)CN[C@H](C)[C@@H](O)[C@]1(C)O [Example B-90] | 8 µM | 26 µM | – | –
CCCNC[C@]1(O)[C@H](C)O[C@@H](O[C@H]2[C@H](C)[C@@H](O[C@@H]3O[C@H](C)C[C@H](N(C)S(=O)(=O)c4cnc5ccccn45)[C@H]3Oc3ccc(OC)cc3)[C@](C)(O)C[C@@H](C)CN[C@H](C)[C@@H](O)[C@](C)(O)[C@@H](CC)OC(=O)[C@@H]2C)C[C@@]1(C)OC [Example B-118] | 45 µM | 10 µM | – | –
CC[C@H]1OC(=O)[C@H](C)[C@@H](O[C@H]2C[C@@](C)(OC)[C@](O)(CNCc3ccccc3)[C@H](C)O2)[C@H](C)[C@@H](O[C@@H]2O[C@H](C)C[C@H](N(C)S(=O)(=O)c3nccn3C)[C@H]2Oc2ccc(F)cc2)[C@](C)(O)C[C@@H](C)CN[C@H](C)[C@@H](O)[C@]1(C)O [Example B-141] | 7 µM | 4 µM | – | –
CCCNC[C@]1(O)[C@H](C)O[C@@H](O[C@H]2[C@H](C)[C@@H](O[C@@H]3O[C@H](C)C[C@H](N(CCC)S(=O)(=O)c4ccc(Cl)cc4)[C@H]3O)[C@](C)(O)C[C@@H](C)CN[C@H](C)[C@@H](O)[C@](C)(O)[C@@H](CC)OC(=O)[C@@H]2C)C[C@@]1(C)OC [Example B-142] | – | – | 8 µM | 9 µM
CCCNC[C@]1(O)[C@H](C)O[C@@H](O[C@H]2[C@H](C)[C@@H](O[C@@H]3O[C@H](C)C[C@H](N(CC(C)C)S(=O)(=O)c4ccc(OC)cc4)[C@H]3O)[C@](C)(O)C[C@@H](C)CN[C@H](C)[C@@H](O)[C@](C)(O)[C@@H](CC)OC(=O)[C@@H]2C)C[C@@]1(C)OC [Example B-149] | 7 µM | 8 µM | – | –
CCCNC[C@]1(O)[C@H](C)O[C@@H](O[C@H]2[C@H](C)[C@@H](O[C@@H]3O[C@H](C)C[C@H](N(CC(C)C)S(=O)(=O)c4ccc(Cl)cc4)[C@H]3O)[C@](C)(O)C[C@@H](C)CN[C@H](C)[C@@H](O)[C@](C)(O)[C@@H](CC)OC(=O)[C@@H]2C)C[C@@]1(C)OC [Example B-150] | 4 µM | 5 µM | – | –
CCCNC[C@]1(O)[C@H](C)O[C@@H](O[C@H]2[C@H](C)[C@@H](O[C@@H]3O[C@H](C)C[C@H](N(C)S(=O)(=O)c4ccc(Cl)cc4)[C@H]3O)[C@](C)(O)C[C@@H](C)CN(CCC)[C@H](C)[C@@H](O)[C@](C)(O)[C@@H](CC)OC(=O)[C@@H]2C)C[C@@]1(C)OC [Example B-151] | 8 µM | 10 µM | – | –
CCCNC[C@]1(O)[C@H](C)O[C@@H](O[C@H]2[C@H](C)[C@@H](O[C@@H]3O[C@H](C)C[C@H](N(C)S(=O)(=O)c4ccc(Cl)cc4)[C@H]3O)[C@](C)(O)C[C@@H](C)CN(C)[C@H](C)[C@@H](O)[C@](C)(O)[C@@H](CC)OC(=O)[C@@H]2C)C[C@@]1(C)OC [Example B-153] | 7 µM | 10 µM | – | –
CCCNC[C@]1(O)[C@H](C)O[C@@H](O[C@H]2[C@H](C)[C@@H](O[C@@H]3O[C@H](C)C[C@H](N(C)S(=O)(=O)c4ccc(C)cc4)[C@H]3O)[C@](C)(O)C[C@@H](C)CN(CCC)[C@H](C)[C@@H](O)[C@](C)(O)[C@@H](CC)OC(=O)[C@@H]2C)C[C@@]1(C)OC [Example B-154] | 7 µM | 15 µM | – | –
CCCN1C[C@H](C)C[C@@](C)(O)[C@H](O[C@@H]2O[C@H](C)C[C@H](N(C)S(N)(=O)=O)[C@H]2O)[C@@H](C)[C@H](O[C@H]2C[C@@](C)(OC)[C@](O)(CNc3ccc(OC)cc3)[C@H](C)O2)[C@@H](C)C(=O)O[C@H](CC)[C@@](C)(O)[C@H](O)[C@H]1C [Example B-157] | 22 µM | 31 µM | – | –
CC[C@H]1OC(=O)[C@H](C)[C@@H](O[C@H]2C[C@@](C)(OC)[C@](O)(CN3CCCCC3)[C@H](C)O2)[C@H](C)[C@@H](O[C@@H]2O[C@H](C)C[C@H](N(C)S(=O)(=O)c3ccc(C(F)(F)F)cc3)[C@H]2O)[C@](C)(O)C[C@@H](C)CN[C@H](C)[C@@H](O)[C@]1(C)O [Example C-18] | 6 µM | 5 µM | – | –
CC[C@H]1OC(=O)[C@H](C)[C@@H](O[C@H]2C[C@@](C)(OC)[C@](O)(CN3CCCCC3)[C@H](C)O2)[C@H](C)[C@@H](O[C@@H]2O[C@H](C)C[C@H](N(C)S(=O)(=O)c3ccc(F)cc3)[C@H]2O)[C@](C)(O)C[C@@H](C)CN[C@H](C)[C@@H](O)[C@]1(C)O [Example C-19] | 5 µM | 7 µM | – | –
CC[C@H]1OC(=O)[C@H](C)[C@@H](O[C@H]2C[C@@](C)(OC)[C@](O)(CN3CCCCC3)[C@H](C)O2)[C@H](C)[C@@H](O[C@@H]2O[C@H](C)C[C@H](N(C)S(=O)(=O)Nc3ccc(C(C)(C)C)cc3)[C@H]2O)[C@](C)(O)C[C@@H](C)CN[C@H](C)[C@@H](O)[C@]1(C)O [Example C-22] | 4 µM | 6 µM | – | –
